According to patent US20240115712A1, “SEMICARBAZONE-BASED SAPONIN CONJUGATE” (priority 2021, published 2024):
Read-outs that look alike come from different tables or passages of the source.

Legend:
[1] = Release kinetics assay; format: physicochemical; settings: pH 4.0, 37° C.
Method: The SO1861 conjugate of interest was dissolved in an acetate buffer (20 mM, pH 4.0 or pH 5.0), a phosphate buffer (20 mM) or in a PBS buffer (pH 7.4) with a final concentration of 10 μM at 20° C. or at 37° C. The release of SO1861 was followed overtime by monitoring the decrease of the UPLC-UV 4 peak area of the SO1861 conjugate of interest at different time points.

[2] = test system: human red blood cells (RBC); experiment: Haemolysis assay; format: cell-based; settings: fresh human red blood cells
Method: Red blood cells (RBCs) were isolated from a buffy coat using a Ficoll gradient. The obtained RBC pellet (˜4-5 ml) was washed 2× with 50 ml DPBS (without Ca^2+/Mg^2+, PAN-Biotech GmbH). Cells were pelleted by centrifugation for 10 min, 800×g at RT. RBC were counted and resuspended at 500,000,000 c/ml in DPBS (without Ca^2+/Mg^2+), based on total cell count. SO1861-linker dilutions were prepared in DPBS (with Ca^2+/Mg^2+, PAN-Biotech GmbH), at 1.11× final strength. For positive lysis control a 0.02% Triton-X100 solution was prepared in DPBS^+/+. Of all compound solutions 135 μl was dispensed/well in a 96 well V-bottom plate. To this 15 μl RBC suspension was added and mixed shortly (10 sec-600 rpm). The plate was incubated 30 min at RT, with gentle agitation. Afterwards the plate was spun for 10 min at 800×g to pellet the RBC and 100-120 μl supernatant was transferred to a standard 96 wp. Subsequently, the OD at 405 nm was measured on a Thermo Scientific Multiskan FC plate reader (Thermo Scientific).

[3] = test system: HSP27 mRNA expression in A431 cells; experiment: HSP27 gene silencing (qPCR) in A431 cells; format: cell-based; settings: Homo sapiens, A-431, saponin titrated +50 nM Trastuzumab-HSP27BNA
Excerpt: RNA Isolation and Gene Expression Analysis
RNA from cells was isolated and analysed according to standard protocols (Biorad).

[4] = test system: HeLa cells; experiment: Cell toxicity (MTS cell viability assay); format: cell-based, human; settings: saponin alone
Method: (§1) Cell viability was determined by an MTS-assay, performed according to the manufacturer's instruction (CellTiter 96® AQueous One Solution Cell Proliferation Assay, Promega). Briefly, the MTS solution was diluted 20× in DMEM without phenol red (PAN-Biotech GmbH) supplemented with 10% FBS (PAN-Biotech GmbH). The cells were washed once with 200 μL PBS per well, after which 100 μL diluted MTS solution was added per well. The plate was incubated for approximately 20-30 minutes at 37° C. Subsequently, the optical density at 492 nm was measured on a Thermo Scientific Multiskan FC plate reader (Thermo Scientific).

[5] = test system: A431 cells; format: cell-based, human
Method: as §1

[6] = test system: HeLa cells; format: cell-based, human
Method: as §1

[7] = test system: A431 cells; experiment: Cell toxicity (MTS cell viability assay); format: cell-based, human; settings: saponin alone
Method: as §1

[8] = +5 pM EGFdianthin or 10 pM cetuximab-saporin or 50 pM Trastuzumab-saporin
[9] = read-out: IC50 nM (Activity; +5 pM EGFdianthin), saponin titrated +5 pM EGFdianthin

SMILES	time to 50% release of SO1861 [1]	IC50 ([2]; Erythrocyte)	IC50 [3]	IC50 ([4]; Homo sapiens)	cell-killing activity compared with the SO1861 derivatives [5, 8]	IC50 [5, 9]	cell-killing activity compared with the SO1861 derivatives [6, 8]	IC50 [6, 9]	IC50 [7]	IC50 [4]	IC50 [2]
CC(=O)OC1C(C)OC(OC2C(C)OC(OC(=O)[C@]34CCC(C)(C)CC3C3=CCC5[C@@]6(C)CC[C@H](OC7OC(C(=O)O)C(O)C(OC8OCC(O)C(O)C8O)C7OC7OC(CO)C(O)C(O)C7O)[C@@](C)(C=NNC(=O)CCCCCN7C(=O)CC(SCCO)C7=O)C6CC[C@@]5(C)[C@]3(C)C[C@H]4O)C(OC3OC(C)C(OC4OCC(O)C(OC5OC(CO)C(O)C(O)C5O)C4O)C(O)C3O)C2O)C(O)C1OC1OCC(O)C(O)C1O (stereo partly drawn) [SO1861-EMCH (blocked)]	12 h	6 µM	–	–	–	–	–	–	–	–	–
CC(=O)OC1C(C)OC(OC2C(C)OC(OC(=O)[C@]34CCC(C)(C)CC3C3=CCC5[C@@]6(C)CC[C@H](OC7OC(C(=O)O)C(O)C(OC8OCC(O)C(O)C8O)C7OC7OC(CO)C(O)C(O)C7O)[C@@](C)(C=NNC(=O)N7CCN(C(=O)CCCCCN8C(=O)C=CC8=O)CC7)C6CC[C@@]5(C)[C@]3(C)C[C@H]4O)C(OC3OC(C)C(OC4OCC(O)C(OC5OC(CO)C(O)C(O)C5O)C4O)C(O)C3O)C2O)C(O)C1OC1OCC(O)C(O)C1O (stereo partly drawn) [SO1861-SC-Mal]	–	250 µM	0.6 µM	> 100 µM	–	–	–	–	–	–	–
CC(=O)O[C@H]1[C@H](O[C@@H]2OC[C@@H](O)[C@H](O)[C@H]2O)[C@@H](O)[C@H](O[C@@H]2[C@H](O)[C@@H](O[C@@H]3O[C@@H](C)[C@H](O[C@@H]4OC[C@@H](O)[C@H](O[C@@H]5O[C@H](CO)[C@@H](O)[C@H](O)[C@H]5O)[C@H]4O)[C@@H](O)[C@H]3O)[C@H](OC(=O)[C@]34CCC(C)(C)C[C@H]3C3=CC[C@@H]5[C@@]6(C)CC[C@H](O[C@@H]7O[C@H](C(=O)O)[C@@H](O)[C@H](O[C@@H]8OC[C@@H](O)[C@H](O)[C@H]8O)[C@H]7O[C@@H]7O[C@H](CO)[C@H](O)[C@H](O)[C@H]7O)[C@@](C)(C=O)[C@@H]6CC[C@@]5(C)[C@]3(C)C[C@H]4O)O[C@@H]2C)O[C@@H]1C [SO1861]	–	–	–	–	strongest cell-killing activity	300 nM	strongest cell-killing activity	500 nM	2 µM	9 µM	10 µM
